This note sets out measurements from paper PMC5437670 (Journal of the American Chemical Society, 2017).

For test [1], the target named is T1, Thermotoga maritima TmGH1 β-glucosidase (Thermotoga maritima, UniProt Q08638).
T1 sequence (Q08638 1-446): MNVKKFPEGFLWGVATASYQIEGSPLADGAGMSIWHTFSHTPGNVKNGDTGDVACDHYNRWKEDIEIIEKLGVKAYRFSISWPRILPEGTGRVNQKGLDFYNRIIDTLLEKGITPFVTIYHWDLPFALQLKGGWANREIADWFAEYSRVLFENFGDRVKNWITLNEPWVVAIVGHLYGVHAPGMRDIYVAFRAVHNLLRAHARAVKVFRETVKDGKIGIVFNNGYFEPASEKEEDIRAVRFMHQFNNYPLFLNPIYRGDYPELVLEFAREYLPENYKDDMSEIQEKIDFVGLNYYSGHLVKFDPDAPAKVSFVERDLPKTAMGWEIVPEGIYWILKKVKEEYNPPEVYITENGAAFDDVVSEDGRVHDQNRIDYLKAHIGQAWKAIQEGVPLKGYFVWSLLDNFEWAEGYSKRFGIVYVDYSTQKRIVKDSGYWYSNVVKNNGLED
Description: Kinetic studies of reversible inhibition of TmGH1. The format is biochemical. Conditions: for inhibition of TmGH1 (in words): p-nitrophenyl β-D-glucopyranoside, Lineweaver–Burk method.

The target of test [2] is recombinant human GAA (Myozyme), lysosomal α-glucosidase (Homo sapiens, UniProt P10253). Put plainly: Enzyme activity assay, apparent IC50 on GAA. The format is biochemical.

Bounds are passed on as bounds.

With `OC[C@H]1NC[C@H](O)[C@@H](O)[C@@H]1O` [DNJ, deoxynojirimycin, reference compound], in test [1], the Ki (in general, the equilibrium dissociation constant of an inhibitor or competing ligand from its target) worked out at 2.5 µM and the “inhibition of TmGH1 (in words)” value is listed as “low micromolar”.

In test [1], `[N-]=[N+]=NCCCCNC(=O)[C@@H]1[C@H]2[C@H](O)[C@@H](O)[C@H](O)[C@@H](CO)[C@@H]12` [Compound 5] showed an inhibition constant (Ki) of 0.0082 µM. Also, in test [2], the IC50 (as a rule, the concentration that gives 50% inhibition) was > 150 µM. Further, the “inhibition of GAA (in words)” value in test [2] (final concentrations up to 150 μM) is on record as “No apparent inhibition”.

On to `CCOC(=O)[C@@H]1[C@H]2[C@H](O)[C@@H](O)[C@H](O)[C@@H](CO)[C@@H]12` [Compound 3], for which, in test [1], the Ki turned out to be 22.3 µM and the “inhibition of TmGH1 (in words)” value is recorded as “micromolar inhibition”. For the same compound, the IC50 in test [2] was > 150 µM.

As to `OC[C@@H]1[C@@H](O)[C@H](O)[C@@H](O)CN1CCCCCOCC12CC3CC(CC(C3)C1)C2` [AMP-DNM (MZ-21), reference compound], the “inhibition of TmGH1 (in words)” value in test [1] is “low micromolar”.
